Our source for the IC50 values is US9796719B2, “Compounds and pharmaceutical compositions thereof for the treatment of inflammatory disorders” (GALAPAGOS NV, priority 2013, dated 2017).

Bounds are passed on as bounds.

The IC50 is the concentration that inhibits the measured activity by half.

The assay deals with hENPP2 (UniProtKB/SwissProt Sequence ref Q13822) (Homo sapiens (Human), UniProt Q13822). The assay can be described thus: LPC hENPP2 assay (choline release, LPC as substrate). The assay is classed as biochemical. On the procedure:
The principle of the assay consists in quantifying the released choline with an enzymatic method using choline oxidase and peroxidase. Choline oxydation by choline oxydase releases betaine and peroxide. The latter is quantified in presence of HRP that converts the peroxide detection agent TOOS and 4-aminoantipyrine into quinoneimine dye. The appearance of quinoneimine dye is measured spectrophotometrically at 555 nm and is proportional to the amount of choline released by ENPP2. Inhibition of ENPP2 will result in a decrease of the signal.
The reaction is terminated and choline quantified by the addition of a 25 μL of a mixture containing 0.6 U/mL of choline oxidase, 0.6 U/mL of peroxydase, 1.8 mM TOOS, 1.2 mM amino-antipyrine, 20 mM EGTA (stop-developer solution) diluted in the buffer described above. […] is read on the Envision after an incubation of 30 min at room temperature (Excitation 555 nm, excitation light=70%).
`CCc1nc2ccc(N3CCC4(CCNC4)C3)nn2c1N(C)c1nc(-c2ccc(F)cc2)c(C#N)s1` (centres unmarked) [Cpd 166, 2-((2-ethyl-6-(2,7-diazaspiro[4.4]nonan-2-yl)imidazo[1,2-b]pyridazin-3-yl)(methyl)amino)-4-(4-fluorophenyl) thiazole-5-carbonitrile] gave an IC50 of 100 to 500 nM.

Molecule `CCc1nc2ccc(N3CCN(S(C)(=O)=O)[C@H](CO)C3)nn2c1N(C)c1nc(-c2ccc(F)cc2)c(CO)s1` [Cpd 68, (S)-(4-(2-ethyl-3-((4-(4-fluorophenyl)-5-(hydroxymethyl)thiazol-2-yl)(methyl)amino)imidazo[1,2-b]pyridazin-6-yl)-1-(methylsulfonyl)piperazin-2-yl)methanol] showed a 50% inhibitory concentration (IC50) of 100 to 500 nM.

As for `CCc1nc2ccc(N3CC(NC(=O)OC(C)(C)C)C3)nn2c1N(C)c1nc(-c2ccc(F)cc2)c(C#N)s1` [Cpd 187, [1-(3-{[5-Cyano-4-(4-fluoro-phenyl)-thiazol-2-yl]-methyl-amino}-2-ethyl-imidazo[1,2-b]pyridazin-6-yl)-azetidin-3-yl]-carbamic acid tert-butyl ester], the IC50 was 100 to 500 nM.

For the molecule `CCc1nc2ccc(N3CCC[C@H]3C(=O)O)nn2c1N(C)c1nc(-c2ccc(F)cc2)cs1` [Compound 138, (S)-1-(2-ethyl-3-((4-(4-fluorophenyl)thiazol-2-yl)(methyl)amino)imidazo[1,2-b]pyridazin-6-yl)pyrrolidine-2-carboxylic acid], the IC50 was > 1000 nM.

Turning to `CCc1nc2ccc(N3CCC(O)(CNC(=O)OC)C3)nn2c1N(C)c1nc(-c2ccc(F)cc2)c(C#N)s1` (centres unmarked) [Cpd 168, methyl (1-(3-((5-cyano-4-(4-fluorophenyl)thiazol-2-yl)(methyl)amino)-2-ethylimidazo[1,2-b]pyridazin-6-yl)-3-hydroxypyrrolidin-3-yl)], the IC50 fell in the range of 0.01 to 100 nM.

In the case of `CCc1nc2ccc(N3CCC(O)C3)nn2c1N(C)c1nc(-c2ccc(F)cc2)c(CO)s1` (centres unmarked) [Cpd 185, 1-(2-ethyl-3-((4-(4-fluorophenyl)-5-(hydroxymethyl)thiazol-2-yl)(methyl)amino)imidazo[1,2-b]pyridazin-6-yl)pyrrolidin-3-ol], the half-maximal inhibitory concentration (IC50) was > 1000 nM.

As to `CCc1nc2ccc(C3CCN(CC(=O)N4CC(O)C4)CC3)nn2c1N(C)c1nc(-c2ccc(F)cc2C#N)cs1` [Cpd 207, 2-(2-((2-ethyl-6-(1-(2-(3-hydroxyazetidin-1-yl)-2-oxoethyl)piperidin-4-yl)imidazo[1,2-b]pyridazin-3-yl)(methyl)amino)thiazol-4-yl)-5-fluorobenzonitrile], the 50% inhibitory concentration (IC50) is 100 to 500 nM.

With `CCc1nc2ccc(N3CCN(CC4CNC(=O)O4)CC3)nn2c1N(C)c1nc(-c2ccc(F)cc2)c(C#N)s1` (centres unmarked) [Cpd 160, 2-((2-ethyl-6-(4-((2-oxooxazolidin-5-yl)methyl)piperazin-1-yl)imidazo[1,2-b]pyridazin-3-yl)(methyl)amino)-4-(4-fluorophenyl) thiazole-5-carbonitrile], the half-maximal inhibitory concentration (IC50) lay in the range of 0.01 to 100 nM.

In the case of `CCc1nc2ccc(N3CCC(NCC(=O)OC)C3)nn2c1N(C)c1nc(-c2ccc(F)cc2)cs1` (centres unmarked) [Cpd 135, methyl 2-(1-(2-ethyl-3-((4-(4-fluorophenyl)thiazol-2-yl)(methyl)amino)imidazo[1,2-b]pyridazin-6-yl)pyrrolidin-3-ylamino)acetate], the IC50 was in the range of 500 to 1000 nM.

`CCc1nc2ccc(N3CCC4(CN(C)C(=O)O4)C3)nn2c1N(C)c1nc(-c2ccc(F)cc2)c(C#N)s1` (centres unmarked) [Cpd 164, 2-((2-ethyl-6-(3-methyl-2-oxo-1-oxa-3,7-diazaspiro[4.4]nonan-7-yl)imidazo[1,2-b]pyridazin-3-yl)(methyl)amino)-4-(4-fluorophenyl) thiazole-5-carbonitrile] showed an IC50 of 100 to 500 nM.

Take `CCc1nc2ccc(N3CCC(C(=O)N4CCOCC4)C3)nn2c1N(C)c1nc(-c2ccc(F)cc2)cs1` (centres unmarked) [Cpd 141, (1-(2-ethyl-3-((4-(4-fluorophenyl)thiazol-2-yl)(methyl)amino)imidazo[1,2-b]pyridazin-6-yl)pyrrolidin-3-yl)(morpholino) methanone]: the concentration for half-maximal inhibition (IC50) was > 1000 nM.

On to `CCc1nc2ccc(N3CCC(O)CC3)nn2c1N(C)c1nc(-c2ccc(F)cc2)cs1` [Cpd 90, 1-(2-ethyl-3-((4-(4-fluorophenyl)thiazol-2-yl)(methyl)amino)imidazo[1,2-b]pyridazin-6-yl)piperidin-4-ol], for which the IC50 was > 1000 nM.

For `CCc1nc2ccc(N3CCC(N4CCCCC4)CC3)nn2c1N(C)c1nc(-c2ccc(F)cc2)cs1` [Cpd 111, N-(6-(1,4′-bipiperidin-1′-yl)-2-ethylimidazo[1,2-b]pyridazin-3-yl)-4-(4-fluorophenyl)-N-methylthiazol-2-amine], the IC50 is > 1000 nM.

Molecule `CCc1nc2ccc(N3CC(NCC(=O)N4CC(O)C4)C3)nn2c1N(C)c1nc(-c2ccc(F)cc2)c(C#N)s1` [Cpd 189, 2-((2-ethyl-6-(3-(2-(3-hydroxyazetidin-1-yl)-2-oxoethylamino)azetidin-1-yl)imidazo[1,2-b]pyridazin-3-yl)(methyl)amino)-4-(4-fluorophenyl) thiazole-5-carbonitrile] had a half-maximal inhibitory concentration (IC50) of 0.01 to 100 nM.

Take `CCc1nc2ccc(N3CCC4(CC(=O)NC4=O)C3)nn2c1N(C)c1nc(-c2ccc(F)cc2)cs1` (centres unmarked) [Cpd 121, 7-(2-ethyl-3-((4-(4-fluorophenyl)thiazol-2-yl)(methyl)amino)imidazo[1,2-b]pyridazin-6-yl)-2,7-diazaspiro[4.4] nonane-1,3-dione]: the concentration for half-maximal inhibition (IC50) is > 1000 nM.

Consider `CCc1nc2ccc(N3CCC4(CCN(C(C)=O)C4)C3)nn2c1N(C)c1nc(-c2ccc(F)cc2)c(C#N)s1` (centres unmarked) [Cpd 167, 2-((6-(7-acetoyl-2,7-diazaspiro[4.4]nonan-2-yl)-2-ethylimidazo[1,2-b]pyridazin-3-yl)(methyl)amino)-4-(4-fluorophenyl) thiazole-5-carbonitrile], for which the half-maximal inhibitory concentration (IC50) is 0.01 to 100 nM.

As for `CCc1nc2ccc(N3CCC(NC(=O)N4CCCC4)CC3)nn2c1N(C)c1nc(-c2ccc(F)cc2)cs1` [Compound 89, N-(1-(2-ethyl-3-((4-(4-fluorophenyl)thiazol-2-yl)(methyl)amino)imidazo[1,2-b]pyridazin-6-yl)piperidin-4-yl)pyrrolidine-1-carboxamide], the IC50 lay within 500 to 1000 nM.

With `CCc1nc2ccc(N3CC(NCC(=O)NC)C3)nn2c1N(C)c1nc(-c2ccc(F)cc2)cs1` [Cpd 157, 2-(1-(2-ethyl-3-((4-(4-fluorophenyl)thiazol-2-yl)(methyl)amino)imidazo[1,2-b]pyridazin-6-yl)azetidin-3-ylamino)-N-methylacetamide], the concentration for half-maximal inhibition (IC50) fell in the range of 500 to 1000 nM.

For `CCNC(=O)COC1CCCN(c2ccc3nc(CC)c(N(C)c4nc(-c5ccc(F)cc5)cs4)n3n2)C1` (centres unmarked) [Cpd 92, N-ethyl-2-(1-(2-ethyl-3-((4-(4-fluorophenyl)thiazol-2-yl)(methyl)amino)imidazo[1,2-b]pyridazin-6-yl)piperidin-3-yloxy)acetamide], the half-maximal inhibitory concentration (IC50) is > 1000 nM.

Take `CCc1nc2cnc(N3CCN(CC(=O)N4CC(O)C4)CC3)cn2c1N(C)c1cccc(-c2ccc(F)cc2C#N)n1` [Cpd 17, 2-(6-((2-ethyl-6-(4-(2-(3-hydroxyazetidin-1-yl)-2-oxoethyl)piperazin-1-yl)imidazo[1,2-a]pyrazin-3-yl)(methyl)amino)pyridin-2-yl)-5-fluorobenzonitrile]: the concentration for half-maximal inhibition (IC50) was > 1000 nM.

Regarding `CCc1nc2ccc(N3C[C@H]4C[C@H]3CN4C(=O)OC(C)(C)C)nn2c1N(C)c1nc(-c2ccc(F)cc2)cs1` [Cpd 74, tert-butyl-(1R,4S)-5-(2-ethyl-3-((4-(4-fluorophenyl)thiazol-2-yl)(methyl)amino)imidazo[1,2-b]pyridazin-6-yl)-2,5-diazabicyclo[2.2.1] heptane-2-carboxylate], the IC50 was > 1000 nM.

With `CCc1nc2ccc(N3CCC(NC(=O)CO)C3)nn2c1N(C)c1nc(-c2ccc(F)cc2)cs1` (centres unmarked) [Compound 136, N-(1-(2-ethyl-3-((4-(4-fluorophenyl)thiazol-2-yl)(methyl)amino)imidazo[1,2-b]pyridazin-6-yl)pyrrolidin-3-yl)-2-hydroxyacetamide], the half-maximal inhibitory concentration (IC50) is > 1000 nM.

Consider `CCc1nc2ccc(N3CCC(N4C[C@@H](C)O[C@@H](C)C4)C3)nn2c1N(C)c1nc(-c2ccc(F)cc2)c(C#N)s1` (stereo partly drawn) [Compound 178, 2-((6-(3-((2S,6R)-2,6-dimethylmorpholino)pyrrolidin-1-yl)-2-ethylimidazo[1,2-b]pyridazin-3-yl)(methyl)amino)-4-(4-fluorophenyl)thiazole-5-carbonitrile], for which the half-maximal inhibitory concentration (IC50) lay in the range of 500 to 1000 nM.

Turning to `CCc1nc2ccc(N3CCC(N4CCC(N(C)C(C)=O)CC4)C3)nn2c1N(C)c1nc(-c2ccc(F)cc2)c(C#N)s1` (centres unmarked) [Cpd 181, N-(1-(1-(3-((5-cyano-4-(4-fluorophenyl)thiazol-2-yl)(methyl)amino)-2-ethylimidazo[1,2-b]pyridazin-6-yl)pyrrolidin-3-yl)piperidin-4-yl)-N-methylacetamide], the IC50 was in the range of 0.01 to 100 nM.

Take `CCc1nc2ccc(N3CCN(CC(=O)N4CCC(F)(F)C4)CC3)nn2c1N(C)c1nc(-c2ccc(F)cc2)cs1` [Cpd 31, 1-(3,3-difluoropyrrolidin-l-yl)-2-(4-(2-ethyl-3-((4-(4-fluorophenyl)thiazol-2-yl)(methyl)amino)imidazo[1,2-b]pyridazin-6-yl)piperazin-l-yl)ethanone]: the IC50 was 100 to 500 nM.

Take `CCc1nc2ccc(N3CCC4(CCOCC4)C3)nn2c1N(C)c1nc(-c2ccc(F)cc2)cs1` [Cpd 117, N-(2-ethyl-6-(8-oxa-2-azaspiro[4.5]decan-2-yl)imidazo[1,2-b]pyridazin-3-yl)-4-(4-fluorophenyl)-N-methylthiazol-2-amine]: the concentration for half-maximal inhibition (IC50) was > 1000 nM.
